The record followed here is patent publication US20110123483A1, “HMGB1 FOR CANCER TREATMENT” (DEUTSCHES KREBSFORSCHUNGSZENTRUM, priority 2009, published 2011).

“Also recorded” adds a separate entry of the source.

Common to all, as to type: cell-based, human
One assay deals with pseudo rho zero cells. The experiment in a line: Survival of pseudo rho zero cells by crystal violet analysis. Particulars: cells devoid of intact mitochondrial DNA. As to the method: U251 glioblastoma cells and non-immortalized human astrocytic cells (ScienCell, USA) were maintained in DMEM (Life Technologies) containing 10% FCS, 4.5 g/L glucose, glutamine, 110 mg/L sodium pyruvate, and 1% penicillin-streptomycin (Life Technologies) and in astrocyte medium (ScienCell) containing 2% FBS (fetal bovine serum) and 1% penicillin-streptomycin at 37° C. and 5% CO2. For the generation of pseudo rho zero cells (0.0), U251 MG cells were treated with low dose (250 ng/ml) ethidiumbromide for 3 months. The cells were supplemented with DMEM (10% FCS, 1% P/S) containing 50 μg/ml L-pyruvate and 5 mg/ml uridine (King and Attardi, 1989).
20,000 U251MG glioblastoma cells or human astrocytic cells (ScienCell) were plated into 96-well plates. After 24 h cells were treated with rhHMGB1 (Sigma Aldrich) or rat recombinant HMGB1 (generously provided by Angelika Bierhaus, Heidelberg, Germany), and TRAIL (for 24 h) or Temozolomide (for 72 h) alone or in combination, respectively. Cell survival was measured by crystal violet staining as described previously (Gdynia et al., 2007). Cell proliferation was assessed by seeding 50,000 U251 MG cells in 6 cm culture plates and treatment with rhHMGB1, followed by counting the cells in a Neubauer chamber at day 0, 2, 4 and 5.

The test system of a further assay is mitochondrial DNA. The assay is described as follows: Dot blot analysis of mitochondrial DNA. The conditions noted are these: 24 h (FIG. 11A). As to the method: Subcellular fractionation was performed as described below. The DNA of the resulting mitochondrial suspension was purified by a modified method described in Almeida et al. (Almeida et al., 2006). Briefly, contaminating nuclear DNA was precipitated by lysis of the mitochondria in a buffer of 50 mM glucose, 1.5 mM EDTA, 25 mM Tris-HCl, pH 7.4 with 20% SDS and 3 M K-acetate. After centrifugation (10 min, 4° C., 10.000×g) the supernatant was digested with 20 mg/ml proteinase K for 1 h at 37° C. and mtDNA was extracted twice with phenol-chloroform and one additional time with chloroform, followed by precipitation of mtDNA from the aqueous phase by adding two volumes of isopropanol. The pellet was washed with 80% ethanol at −20° C. After drying the mtDNA was solved in TE-buffer (10 mM Tris-HCl, pH 7.4, 1 mM EDTA, pH 8.0). After treatment of the samples with 100 μg/ml ribonuclease A (RNAse A) for 1 h at 37° C., the phenol-chloroform extraction steps were repeated and mtDNA was precipitated by adding 2 volumes of 100% ethanol and 1/10 volume 5 M NaCl at −20° C. overnight. After a centrifugation step for 20 min at 4° C. with 13,000 rpm and washing the pellet 2× with 80% ethanol, followed by drying, the pellet was solved in ddH2O. The purified DNA was digested overnight with BamHI and loaded on a 0.5% agarose gel. […] Labeling efficiency was determined as described in the kit. […]

Another assay deals with JNK1/2. The assay is described as follows: Western blot analysis of JNK1/2 phosphorylation. The conditions noted are these: 24 h (FIG. 3C). As to the method:
(§1) The U251 MG tumor cells were lysed in lysis buffer containing 20 mmol/L Tris-HCl (pH 7.4), 137 mmol/L NaCl, 10% (v/v) glycerine, 1% Triton X-100, 2 mmol/L EDTA, 100 mmol/L phenylmethylsulfonyl fluoride, and protease inhibitors (Complete mini; Roche Molecular Biochemicals). For the detection of phosphoprotein levels, 10 mmol/L NaPPi, 50 mmol/L NaF, and 20 mmol/L NaVO4 were added to the lysis buffer. After 15 min incubation on ice, the lysates were centrifuged at 14,000×g for 10 min. The total protein concentration of the lysates was measured using the Bradford assay (Bio-Rad). Soluble protein (25-100 μg per lane) was separated on 10% to 15% polyacrylamide gels and blotted onto nitrocellulose by standard procedures. […]

Another assay deals with U251 MG cells. The experiment in a line: Western blot of phospho-H2A.X and BNIP3. The conditions noted are these: 24 h (FIG. 7). As to the method:
as §1

As to “rhHMGB1: recombinant human High Mobility Group B1 protein (Sigma Aldrich)”, the “rhHMGB1-induced cell death in pseudo rho zero cells” value in the assay on pseudo rho zero cells is on record as “almost completely resistant; also recorded: highly protected”. In addition, the “mitochondrial DNA content” value with mitochondrial DNA is “substantial and rapid depletion of mtDNA”. In addition, in the assay on JNK1/2, the “phosphorylation of c-Jun N-terminal kinase 1/2 (JNK)” value was “continuous and dose dependent phosphorylation”. Besides, in the assay with U251 MG cells, the BNIP3 expression result is on record as “not up-regulated” and the H2A.X phosphorylation entry is “not observed”.
